Assay results as given in patent publication US8722733B2 (XenoPort, Inc., priority 2008, dated 2014).

Assays:
[1] = Interconversion of the anhydrous and hydrated crystalline forms (XRPD); assay type: physicochemical
Protocol: X-ray powder diffraction (XRPD) analysis was performed using a PANalytical X'Pert Pro X-ray diffractometer. The X-ray source was Cu-kα1 with output voltage of 45 kV and current of 40 mA. The instrument employed para-focusing Bragg-Brentano geometry with incident divergence and scattering slits set at 1/16° and ⅛°, respectively. 0.04-mm radius soller slits were used for both the incident and diffracted beams to remove axial divergence. Powder samples (9-12 mg) were gently pressed onto a single crystal silicon sample holder to form a smooth surface, and samples were spun at 8 sec/revolution throughout the data acquisition process. The samples were scanned from 2° to 40° (2θ) with a step size of 0.017° (2θ°) and a scan speed of 0.067°/sec. Data acquisition was controlled and analyzed with X'Pert Data Collector Software (version 2.2d) and X'Pert Data Viewer (version 1.2c), respectively.
The anhydrous and hydrated crystalline forms of (2R)-2-phenylcarbonyloxypropyl (2S)-2-amino-3-(3,4-dihydroxyphenyl)propanoate mesylate interconvert depending on the water content of the environment.

[2] = Water sorption/desorption (dynamic vapor sorption); assay type: physicochemical; details: 25° C., humidity cycle 5% RH to 95% RH at 10% RH intervals
Protocol: The hygroscopicity of (2R)-2-phenylcarbonyloxypropyl (2S)-2-amino-3-(3,4-dihydroxyphenyl)propanoate mesylate, hydrate was evaluated during one vapor sorption-desorption cycle using a VTI SGA-100 dynamic vapor sorption analyzer. (2R)-2-Phenylcarbonyloxypropyl (2S)-2-amino-3-(3,4-dihydroxyphenyl)propanoate mesylate, hydrate was first dried at 25° C. for 180 min under a nitrogen atmosphere. The material was considered equilibrated when the weight change during 2 min was less than 0.01%. To evaluate the vapor sorption-desorption at 25° C., the dried (2R)-2-phenylcarbonyloxypropyl (2S)-2-amino-3-(3,4-dihydroxyphenyl)propanoate mesylate, hydrate was exposed to a humidity cycle ramped (and deramped) from 5% RH to 95% RH at 10% RH intervals. At each humidity interval, the material was equilibrated as determined by a less than 0.01% weight change during 5 min.

## CS(=O)(=O)O.C[C@H](COC(=O)[C@@H](N)Cc1ccc(O)c(O)c1)OC(=O)c1ccccc1.O [(2R)-2-phenylcarbonyloxypropyl (2S)-2-amino-3-(3,4-dihydroxyphenyl)propanoate mesylate, hydrate]
[1]; after heating at 70° C., left at room temperature and humidity for 1 day
  Crystal form after heating and then room temperature and humidity: reverts to crystalline (2R)-2-phenylcarbonyloxypropyl (2S)-2-amino-3-(3,4-dihydroxyphenyl)propanoate mesylate, hydrate
[1]; heated from 25° C. to 70° C. at 2° C./min, held at 70° C. for 15 min
  Crystal form after heating: converted to a transient/metastable crystalline form
[1]; vacuum dried overnight, then 25° C. and 40-60% RH for one day
  Crystal form after vacuum drying and then room temperature and humidity: a mixture of crystalline anhydrous and hydrate forms
[2]
  Hygroscopicity: vapor sorption-desorption: humidity-dependent reversible sorption and desorption of water vapor

## CS(=O)(=O)O.C[C@H](COC(=O)[C@@H](N)Cc1ccc(O)c(O)c1)OC(=O)c1ccccc1 [compound 1, (2R)-2-phenylcarbonyloxypropyl (2S)-2-amino-3-(3,4-dihydroxyphenyl)propanoate mesylate]
[1]; about 25° C., humidity of at least about 60% RH
  Time for conversion to the hydrate in the presence of water vapor: ≤ 24 h
